Source: US20240002332A1, “Small Molecule Inhibitors of SARS-CoV-2 Infections” (priority 2020, published 2024)
Values joined by “and” are separate entries in the source; they are usually repeats but may differ in a detail not shown here. Identical values can stand only once. Like-named read-outs stand apart in the source and are kept apart here.

Columns and labels:
[1] = tested on: SARS CoV-2 (USA_WA1/2020); test: Cytopathic effect (CPE) assay; type: cell-based; conditions: Severe acute respiratory syndrome coronavirus 2, Vero C1008, 72 h
Vero-E6 = test: Cytotoxicity counter screen (cell viability, CellTiter-Glo); type: cell-based
Protocol: Compound cytotoxicity was assessed in a BSL-2 counter screen as follows: Cell culture media (MEM, 1% Pen/Strep/GlutaMax, 1% HEPES, 2% HI FBS) was dispensed at 5 μl/well into ARPs and incubated at room temperature to allow for compound dissolution. Vero-E6 (selected for high ACE2 expression) was dispensed into assay plates at 4000 cells/well in 25 μl media. Assay plates were incubated for 72 h at 37 C, 5% CO2, 90% humidity. Then, 30 μl/well of CellTiter-Glo (Promega #G7573) was dispensed into the assay plate. Luminescence was read using a BMG PHERAstar plate reader following incubation at room temperature for 10 min to measure cell viability.

in vivo = conditions: C57BL/6, mouse, po, C57BL/6 mice; for AUC(0-inf): AUCInf; for AUC(0-inf) / AUC(0-t) / Cmax / Tmax: Compound P3 in plasma; for AUC(0-t): AUClast; for half-life: t1/2, Compound P3 in plasma
[2] = Kinetic solubility (Tier I ADME); conditions: kinetic from dmso stock
SARS-CoV-2 = conditions: EIDD-2801 250 mpk BID; Compound P3 60 mpk BID
Description: EIDD-2801 (molnupiravir) was chosen as the positive control at 250 mpk BID oral dose.

[3] = Parallel artificial membrane permeability assay (PAMPA); conditions: PAMPA, pH 5
[4] = Tolerability study in mice, 7 days QD, PK on the 7th day; conditions: 25, 50 and 100 mg/kg PO QD 7 days, C57BL/6J mice
[5] = Pharmacokinetics in mice IV 3 and PO 10 mg/kg; plasma, lung and liver; conditions: for Kp: AUC ratio (tissue/plasma)
[6] = Compound P3 in plasma, PO 50 mg/kg (PO_A), C57BL/6 mice, individual mice, 50 mg/kg
[7] = Compound P3 in plasma, PO 100 mg/kg (PO_B), C57BL/6 mice, individual mice, 100 mg/kg
[8] = 50 mg/kg, PO 50 mg/kg (PO_A), Mean n = 3
[9] = 50 mg/kg, PO 50 mg/kg (PO_A), individual mice
[10] = 100 mg/kg, PO 100 mg/kg (PO_B), Mean n = 3
[11] = 100 mg/kg, PO 100 mg/kg (PO_B), individual mice
[12] = mice, Compound P3 dosed PO 10 mg/kg, Liver
[13] = mice, Compound P3 dosed PO 10 mg/kg, Lung
[14] = mice, Compound P3 dosed PO 10 mg/kg, Plasma
[15] = mouse Plasma, Compound P3 dosed IV 3 mg/kg
[16] = mouse Plasma, Compound P3 dosed PO 10 mg/kg

SMILES: O=C(Nc1ccc([N+](=O)[O-])cc1Cl)c1cc(Cl)ccc1OC(=O)N1CCNCC1 [Compound P3, 4-chloro-2-((2-chloro-4-nitrophenyl)carbamoyl)phenyl piperazine-1-carboxylate]
- IC50 [1]: 4.05 µM
- Emax ([1]; read-out: Efficacy CPE assay): 40.7%
- IC50 (Vero-E6; Chlorocebus sabaeus, Vero C1008, 72 h, read-out: IC50 (μM) cell viability): 7.21 µM
- Efficacy cell viability (Vero-E6; uninfected Vero-E6, 72 h, CellTiter-Glo): −99.8
- AUC_% Extrap (Compound P3 in plasma, PO 50 mg/kg (PO_A), C57BL/6 mice, Mean n = 3): 33.5%
- AUClast [6]: 12332 ng·h/mL and 10489 ng·h/mL
- Cmax [6]: 1920 ng/mL and 1560 ng/mL
- Tmax [6]: 0.500 h
- t1/2 [6]: 3.70 h
- AUC_% Extrap (Compound P3 in plasma, PO 100 mg/kg (PO_B), C57BL/6 mice, Mean n = 3): 28.2%
- AUCInf [7]: 33619 ng·h/mL and 24577 ng·h/mL and 56087 ng·h/mL
- AUC_% Extrap [7]: 22.7% and 23.7% and 38.3%
- AUClast [7]: 18757 ng·h/mL and 34617 ng·h/mL
- Cmax [7]: 2340 ng/mL and 3880 ng/mL
- t1/2 [7]: 13.8 h and 19.8 h
- in vivo conversion to niclosamide (Compound P3 oral, mice): effectively converted in vivo to the active niclosamide
- plasma exposure of niclosamide vs that reported for oral niclosamide (oral Compound P3, mice): much improved plasma exposures of niclosamide
- AUC(0-inf) (in vivo; [8]): 88700 ng·h/mL
- AUC(0-t) (in vivo; [8]): 9730 ng·h/mL
- AUC(0-t) (in vivo; [9]): 6360 ng·h/mL
- Cmax (in vivo; [8]): 1460 ng/mL
- Cmax (in vivo; [9]): 1140 ng/mL
- half-life (in vivo; [8]): 4.14 h
- half-life (in vivo; [9]): 4.58 h
- Tmax (in vivo; [8]): 2 h
- AUC(0-inf) (in vivo; [10]): 38100 ng·h/mL
- AUC(0-t) (in vivo; [10]): 26400 ng·h/mL
- AUC(0-t) (in vivo; [11]): 26000 ng·h/mL
- Cmax (in vivo; [10]): 3060 ng/mL
- Cmax (in vivo; [11]): 2970 ng/mL
- half-life (in vivo; [10]): 15.3 h
- half-life (in vivo; [11]): 12.4 h
- Tmax (in vivo; [10]): 1 h
- Tmax (in vivo; [11]): 1 h
- solubility [2]: > 43 µg/mL
- IHC immunoreactivity staining in the right lung (SARS-CoV-2): lowered in severity
- Papp [3]: 500 ×10⁻⁶ cm/s
- body weight [4]: no dose dependent weight loss
- tolerability [4]: tolerable for the study period, with no gross findings
- clearance ([5]; mice): moderate
- AUC0-INF/D [5, 12]: 65.7 kg·ng·h/mL/mg
- AUC_% Extrap [5, 12]: 0.9%
- Cmax/D [5, 12]: 24 kg·ng/mL/mg
- AUC0-INF/D [5, 13]: 24400 kg·ng·h/mL/mg
- AUC_% Extrap [5, 13]: 0.2%
- Cmax/D [5, 13]: 4420 kg·ng/mL/mg
- Tmax [5, 13]: 1.5 h
- t1/2 [5, 13]: 2.8 h
- AUC0-INF [5, 14]: 3530 ng·h/mL
- AUC0-INF/D [5, 14]: 353 kg·ng·h/mL/mg
- AUC_% Extrap [5, 14]: 0.5%
- Cmax [5, 14]: 606 ng/mL
- Cmax/D [5, 14]: 60.6 kg·ng/mL/mg
- AUCINF/D [5, 15]: 426 kg·ng·h/mL/mg
- AUCLast/D [5, 15]: 425 kg·ng·h/mL/mg
- AUC_%Extrap_obs [5, 15]: 0.06%
- Clast [5, 15]: 0.163 ng/mL
- Cmax/D [5, 15]: 154 kg·ng/mL/mg
- Tlast [5, 15]: 48 h
- AUCINF/D [5, 16]: 353 kg·ng·h/mL/mg
- AUCINF_obs [5, 16]: 3530 ng·h/mL
- AUCLast/D [5, 16]: 351 kg·ng·h/mL/mg
- AUC_%Extrap_obs [5, 16]: 0.5%
- Clast [5, 16]: 5.23 ng/mL
- Cmax/D [5, 16]: 60.6 kg·ng/mL/mg
- F [5, 16]: 83%
- Tlast [5, 16]: 30 h
- bioavailability ([5]; mouse, in vivo, 10 mg/kg): 83%
- C0 ([5]; mouse, in vivo, iv, 3 mg/kg): 536 ng/mL
- Tmax ([5]; mouse, in vivo, iv, 3 mg/kg): 0.083 h
- Vd ([5]; mouse, in vivo, iv, 3 mg/kg): 8.9 L/kg
- clearance ([5]; mouse, in vivo, iv, 3 mg/kg): 39 mL/min/kg
- AUC(0-inf) ([5]; mouse, in vivo, iv, 3 mg/kg, AUCINF_obs, mouse Plasma, Compound P3 dosed IV 3 mg/kg): 1280 ng·h/mL
- AUC(0-t) ([5]; mouse, in vivo, iv, 3 mg/kg, AUClast, mouse Plasma, Compound P3 dosed IV 3 mg/kg): 1280 ng·h/mL
- Cmax ([5]; mouse, in vivo, iv, 3 mg/kg, Cmax, mouse Plasma, Compound P3 dosed IV 3 mg/kg): 461 ng/mL
- half-life ([5]; mouse, in vivo, iv, 3 mg/kg, t½, mouse Plasma, Compound P3 dosed IV 3 mg/kg): 3.3 h
- AUC(0-inf) ([5]; mouse, in vivo, po, 10 mg/kg, AUC0-INF, mice, Compound P3 dosed PO 10 mg/kg, Liver): 657 ng·h/mL
- AUC(0-inf) ([5]; mouse, in vivo, po, 10 mg/kg, AUC0-INF, mice, Compound P3 dosed PO 10 mg/kg, Lung): 244000 ng·h/mL
- AUC(0-t) ([5]; mouse, in vivo, po, 10 mg/kg, AUC0-last, mice, Compound P3 dosed PO 10 mg/kg, Liver): 651 ng·h/mL
- AUC(0-t) ([5]; mouse, in vivo, po, 10 mg/kg, AUC0-last, mice, Compound P3 dosed PO 10 mg/kg, Lung): 244000 ng·h/mL
- AUC(0-t) ([5]; mouse, in vivo, po, 10 mg/kg, AUC0-last, mice, Compound P3 dosed PO 10 mg/kg, Plasma): 3510 ng·h/mL
- Kp ([5]; mouse, in vivo, po, 10 mg/kg, mice, Compound P3 dosed PO 10 mg/kg, Liver): 0.19
- Kp ([5]; mouse, in vivo, po, 10 mg/kg, mice, Compound P3 dosed PO 10 mg/kg, Lung): 69
- AUC(0-t) ([5]; mouse, in vivo, po, 10 mg/kg, AUClast, mouse Plasma, Compound P3 dosed PO 10 mg/kg): 3510 ng·h/mL
- Cmax ([5]; mouse, in vivo, po, 10 mg/kg, Cmax, mice, Compound P3 dosed PO 10 mg/kg, Liver): 240 ng/mL
- Cmax ([5]; mouse, in vivo, po, 10 mg/kg, Cmax, mice, Compound P3 dosed PO 10 mg/kg, Lung): 44200 ng/mL
- half-life ([5]; mouse, in vivo, po, 10 mg/kg, t1/2, mice, Compound P3 dosed PO 10 mg/kg, Liver): 4 h
- half-life ([5]; mouse, in vivo, po, 10 mg/kg, t1/2, mice, Compound P3 dosed PO 10 mg/kg, Plasma): 2.2 h
- half-life ([5]; mouse, in vivo, po, 10 mg/kg, t½, mouse Plasma, Compound P3 dosed PO 10 mg/kg): 2.2 h
